Measured values reported in ChEMBL document CHEMBL1944615, “Synthesis and biological evaluation of deoxy-hematoxylin derivatives as a novel class of anti-HIV-1 agents” (Bioorg Med Chem Lett, 2012).

How the values were obtained:
[1] = tested on: Human immunodeficiency virus 1; test: Antiviral activity against HIV1 NL432 infected in human TZM-Bl cells assessed as inhibition of viral replication after 2 days by luciferase reporter gene analysis; assay type: functional, organism-based
[2] = tested on: Human immunodeficiency virus 1; test: Antiviral activity against HIV1 NF-462 expressing wild-type Vpr infected in human 293T cells containing 1 ng of viral p24 antigen after 8 days by ELISA relative to hematoxylin; assay type: functional
[3] = tested on: Human immunodeficiency virus 1; test: Antiviral activity against HIV1 NF-462 expressing wild-type Vpr infected in human 293T cells containing 4 ng of viral p24 antigen after 8 days by ELISA; assay type: functional, organism-based
[4] = Inhibition of HIV1 VPR/human importin-alpha interaction in human HeLa cells assessed as inhibition of nuclear import of preintegral complex after 15 mins by confocal laser scanning microscopic analysis; assay type: cell-based
[5] = Cytotoxicity against human MOLT4 cells expressing CD4+ after 2 days by MTT assay; assay type: cell-based, MOLT-4
[6] = tested on: Human immunodeficiency virus 1; test: Antiviral activity against HIV1 NL432 infected in human ConA and IL2-stimulated PBMC assessed as inhibition of viral replication by reverse transcriptase assay; assay type: functional, organism-based
[7] = tested on: Human immunodeficiency virus 1; test: Antiviral activity against HIV1 NF-462 expressing wild-type Vpr infected in human 293T cells containing 4 ng of viral p24 antigen after 8 days by ELISA relative to hematoxylin; assay type: functional
[8] = Human immunodeficiency virus 1, NL432, TZM-bl, 48 h, read-out: IC50
[9] = Human immunodeficiency virus 1, NF-462, HEK-293T, 192 h, read-out: IC50
[10] = Human immunodeficiency virus 1, NL432, read-out: IC50

Structure (SMILES) | IC50 [1, 8] | Ratio IC50 [2] | IC50 [3, 9] | IC50 [4] | CC50 at 48 h [5] | IC50 [6, 10] | Ratio IC50 [7] | IC50 ([1]; tzm-bl) | IC50 [6] | IC50 ([3]; 293t)
CC1(C)Oc2cc3c(cc2O1)[C@@H]1c2cccc(O)c2OC[C@]1(O)C3 | 24600 nM | 2 | 100 nM | 500 nM | > 80000 nM | 30100 nM | 10 | – | – | –
Oc1cc2c(cc1O)[C@@H]1c3cccc(O)c3OC[C@]1(O)C2 | – | – | 400 nM | 900 nM | 32000 nM | – | – | ND(toxic) | ND(toxic) | –
Oc1cc2c(cc1O)[C@@H]1c3ccccc3OC[C@]1(O)C2 | – | – | – | 1900 nM | 1900 nM | – | – | ND(toxic) | – | –
Oc1cc2c(cc1O)[C@@H]1c3ccc(O)c(O)c3OC[C@]1(O)C2 [HEMATOXYLIN] | 100000 nM | – | < 1000 nM | 1300 nM | 40000 nM | – | – | – | ND(toxic) | –
Oc1ccc2c(c1)C[C@@]1(O)COc3ccccc3[C@@H]21 | 67600 nM | – | 900 nM | 600 nM | 82000 nM | 25100 nM | – | – | – | –
CC1(C)Oc2cc3c(cc2O1)[C@@H]1c2cccc(OCc4ccccc4)c2OC[C@]1(O)C3 | – | – | – | 800 nM | > 80000 nM | – | – | Not Active | – | Not Active
O[C@]12COc3ccccc3[C@H]1c1ccccc1C2 | – | – | – | 2700 nM | > 100000 nM | – | – | Not Active | – | –
